Data reported in publication PMC8185074, “Anchor extension: a structure-guided approach to design cyclic peptides targeting enzyme active sites” (Nature Communications, 2021).
Peptide text beside a SMILES is read from it.

Experiments:
Format in all cases: biochemical
HDAC6 = target: T1, HDAC6 (Homo sapiens, UniProt Q9UBN7); experiment: HDAC6 inhibition, full IC50 measurement (Reaction Biology; fluorogenic p53 peptide RHKK(Ac)AMC)
T1 construct: purchased Reaction Biology Corporation (assay run by the CRO)
T1 sequence (Q9UBN7 1-1215): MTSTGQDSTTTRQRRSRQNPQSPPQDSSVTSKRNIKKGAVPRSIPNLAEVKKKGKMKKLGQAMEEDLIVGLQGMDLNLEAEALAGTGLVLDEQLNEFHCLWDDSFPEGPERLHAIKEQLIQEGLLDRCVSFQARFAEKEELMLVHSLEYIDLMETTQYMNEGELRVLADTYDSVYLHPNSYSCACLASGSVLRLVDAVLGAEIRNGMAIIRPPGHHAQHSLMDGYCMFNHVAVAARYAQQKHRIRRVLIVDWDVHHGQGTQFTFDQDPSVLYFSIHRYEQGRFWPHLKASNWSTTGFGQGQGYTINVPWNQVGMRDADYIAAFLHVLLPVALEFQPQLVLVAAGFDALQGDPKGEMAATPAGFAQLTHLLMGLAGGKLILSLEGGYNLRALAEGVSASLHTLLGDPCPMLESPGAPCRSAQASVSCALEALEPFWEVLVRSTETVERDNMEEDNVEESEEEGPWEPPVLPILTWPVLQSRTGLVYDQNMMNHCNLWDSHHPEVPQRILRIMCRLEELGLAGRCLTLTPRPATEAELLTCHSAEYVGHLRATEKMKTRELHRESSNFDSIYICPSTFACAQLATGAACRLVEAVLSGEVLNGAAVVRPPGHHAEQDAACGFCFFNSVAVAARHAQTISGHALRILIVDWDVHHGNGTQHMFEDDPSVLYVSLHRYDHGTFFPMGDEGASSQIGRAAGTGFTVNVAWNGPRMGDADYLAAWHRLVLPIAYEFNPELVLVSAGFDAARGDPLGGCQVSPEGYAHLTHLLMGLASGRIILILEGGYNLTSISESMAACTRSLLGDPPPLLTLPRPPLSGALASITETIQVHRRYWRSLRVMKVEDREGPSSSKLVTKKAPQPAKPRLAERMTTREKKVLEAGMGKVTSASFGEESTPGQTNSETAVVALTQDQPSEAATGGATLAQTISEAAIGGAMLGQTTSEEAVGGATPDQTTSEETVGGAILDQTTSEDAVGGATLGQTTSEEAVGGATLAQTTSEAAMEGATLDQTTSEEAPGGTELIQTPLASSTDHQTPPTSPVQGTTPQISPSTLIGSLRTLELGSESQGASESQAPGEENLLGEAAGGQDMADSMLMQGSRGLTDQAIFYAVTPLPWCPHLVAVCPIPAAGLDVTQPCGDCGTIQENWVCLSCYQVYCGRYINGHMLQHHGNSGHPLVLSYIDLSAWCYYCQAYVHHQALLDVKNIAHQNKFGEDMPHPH
Procedure, shortened: (§1)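 Reaction: enzyme plus acoustically dispensed peptide inhibitor, 50 μM RHKK(Ac)AMC substrate, pH 8.0 Tris buffer with BSA and 1% DMSO, 1 h, 30 °C. Duplicates averaged.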

HDAC1 = target: T2, HDAC1 (Homo sapiens, UniProt Q13547); experiment: HDAC1 inhibition, full IC50 measurement (Reaction Biology; fluorogenic p53 peptide RHKK(Ac)AMC); conditions: t1/t2 replicates
T2 construct: purchased Reaction Biology Corporation (assay run by the CRO)
T2 sequence (Q13547 whole entry): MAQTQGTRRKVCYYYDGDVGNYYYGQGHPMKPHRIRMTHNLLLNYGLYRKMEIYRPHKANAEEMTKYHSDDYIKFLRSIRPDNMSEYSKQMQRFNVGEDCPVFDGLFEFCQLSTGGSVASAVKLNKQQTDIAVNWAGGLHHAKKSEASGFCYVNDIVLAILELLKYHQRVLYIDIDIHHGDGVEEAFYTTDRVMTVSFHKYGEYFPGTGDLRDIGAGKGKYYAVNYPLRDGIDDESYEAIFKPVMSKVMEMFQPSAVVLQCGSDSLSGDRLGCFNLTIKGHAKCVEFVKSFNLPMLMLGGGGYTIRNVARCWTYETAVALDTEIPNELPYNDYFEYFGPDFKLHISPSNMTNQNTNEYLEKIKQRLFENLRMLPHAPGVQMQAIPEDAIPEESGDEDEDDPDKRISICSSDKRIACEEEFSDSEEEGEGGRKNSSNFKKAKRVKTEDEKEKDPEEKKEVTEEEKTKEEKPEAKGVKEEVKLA
Procedure, shortened: as §1

HDAC3 = target: T3, HDAC3 (Homo sapiens, UniProt O15379); experiment: HDAC3 inhibition, full IC50 measurement (Reaction Biology; fluorogenic p53 peptide RHKK(Ac)AMC)
T3 construct: purchased Reaction Biology Corporation (assay run by the CRO)
T3 sequence (O15379 whole entry): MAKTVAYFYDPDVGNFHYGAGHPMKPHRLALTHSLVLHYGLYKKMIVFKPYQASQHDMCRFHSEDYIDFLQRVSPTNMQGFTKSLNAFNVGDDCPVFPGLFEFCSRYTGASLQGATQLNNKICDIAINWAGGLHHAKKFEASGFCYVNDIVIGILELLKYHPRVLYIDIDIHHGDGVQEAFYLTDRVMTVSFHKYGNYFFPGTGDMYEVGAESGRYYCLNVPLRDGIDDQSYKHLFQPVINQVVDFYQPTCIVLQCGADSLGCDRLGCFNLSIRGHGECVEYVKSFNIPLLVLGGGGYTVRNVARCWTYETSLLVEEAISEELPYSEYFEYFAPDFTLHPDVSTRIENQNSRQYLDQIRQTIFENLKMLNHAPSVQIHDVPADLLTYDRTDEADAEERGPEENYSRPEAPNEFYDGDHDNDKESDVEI
T3 sequence (Q9Y618 395-489 partner limits assumed): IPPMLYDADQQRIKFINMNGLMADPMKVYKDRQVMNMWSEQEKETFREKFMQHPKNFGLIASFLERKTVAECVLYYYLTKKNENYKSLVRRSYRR
Procedure, shortened: as §1

## NCCCC[C@H]1NC(=O)[C@H](CCC(N)=O)NC(=O)[C@H](CCC(=O)O)NC(=O)[C@@H]2CCCN2C(=O)[C@H](CC(N)=O)NC(=O)[C@H](CCCCCS)NC(=O)CNC(=O)[C@H](Cc2c[nH]c3ccccc23)NC1=O [des1.1.1, SHA-Asn-Pro-Glu-Gln-dLys-Trp-Gly] (HELM PEPTIDE1{E.Q.[dK].W.G.[O=C([C@H](CCCCCS)N[*:1])[*:2]].N.P}$PEPTIDE1,PEPTIDE1,1:R1-8:R2$$$V2.0)
HDAC6; Conc. 1.00E-05 M, t1
  HDAC6 activity raw data (signal): 2105
HDAC6; Conc. 1.11E-06 M, t1
  HDAC6 activity raw data (signal): 66521
HDAC6; Conc. 1.11E-06 M, t2
  HDAC6 activity raw data (signal): 22362
HDAC6; Conc. 1.23E-07 M, t1
  HDAC6 activity raw data (signal): 195275
HDAC6; Conc. 1.23E-07 M, t2
  HDAC6 activity raw data (signal): 111620
HDAC6; Conc. 1.37E-08 M, t1
  HDAC6 activity raw data (signal): 384422
HDAC6; Conc. 1.37E-08 M, t2
  HDAC6 activity raw data (signal): 355429
HDAC6; Conc. 1.52E-09 M, t1
  HDAC6 activity raw data (signal): 513045
HDAC6; Conc. 1.52E-09 M, t2
  HDAC6 activity raw data (signal): 553965
HDAC6; Conc. 3.33E-06 M, t1
  HDAC6 activity raw data (signal): 30608
HDAC6; Conc. 3.70E-07 M, t1
  HDAC6 activity raw data (signal): 121302
HDAC6; Conc. 3.70E-07 M, t2
  HDAC6 activity raw data (signal): 45275
HDAC6; Conc. 4.12E-08 M, t1
  HDAC6 activity raw data (signal): 327835
HDAC6; Conc. 4.12E-08 M, t2
  HDAC6 activity raw data (signal): 217932
HDAC6; Conc. 4.57E-09 M, t1
  HDAC6 activity raw data (signal): 470518
HDAC6; Conc. 4.57E-09 M, t2
  HDAC6 activity raw data (signal): 472349
HDAC6; Conc. 5.08E-10 M, t1
  HDAC6 activity raw data (signal): 541421
HDAC6; Conc. 5.08E-10 M, t2
  HDAC6 activity raw data (signal): 570888
HDAC1; peptide conc. 1.00E-05 M, listed as des1.1.1_t1
  HDAC1 activity raw data (signal): 15449
HDAC1; peptide conc. 1.00E-05 M, listed as des1.1.1_t2
  HDAC1 activity raw data (signal): 6031
HDAC1; peptide conc. 1.11E-06 M, listed as des1.1.1_t1
  HDAC1 activity raw data (signal): 152129
HDAC1; peptide conc. 1.11E-06 M, listed as des1.1.1_t2
  HDAC1 activity raw data (signal): 83277
HDAC1; peptide conc. 1.23E-07 M, listed as des1.1.1_t1
  HDAC1 activity raw data (signal): 509662
HDAC1; peptide conc. 1.23E-07 M, listed as des1.1.1_t2
  HDAC1 activity raw data (signal): 396625
HDAC1; peptide conc. 1.37E-08 M, listed as des1.1.1_t1
  HDAC1 activity raw data (signal): 648866
HDAC1; peptide conc. 1.37E-08 M, listed as des1.1.1_t2
  HDAC1 activity raw data (signal): 876365
HDAC1; peptide conc. 1.52E-09 M, listed as des1.1.1_t1
  HDAC1 activity raw data (signal): 760286
HDAC1; peptide conc. 1.52E-09 M, listed as des1.1.1_t2
  HDAC1 activity raw data (signal): 1050479
HDAC1; peptide conc. 3.33E-06 M, listed as des1.1.1_t1
  HDAC1 activity raw data (signal): 53777
HDAC1; peptide conc. 3.33E-06 M, listed as des1.1.1_t2
  HDAC1 activity raw data (signal): 31360
HDAC1; peptide conc. 3.70E-07 M, listed as des1.1.1_t1
  HDAC1 activity raw data (signal): 243491
HDAC1; peptide conc. 3.70E-07 M, listed as des1.1.1_t2
  HDAC1 activity raw data (signal): 191722
HDAC1; peptide conc. 4.12E-08 M, listed as des1.1.1_t1
  HDAC1 activity raw data (signal): 677146
HDAC1; peptide conc. 4.12E-08 M, listed as des1.1.1_t2
  HDAC1 activity raw data (signal): 657201
HDAC1; peptide conc. 4.57E-09 M, listed as des1.1.1_t1
  HDAC1 activity raw data (signal): 723834
HDAC1; peptide conc. 4.57E-09 M, listed as des1.1.1_t2
  HDAC1 activity raw data (signal): 981941
HDAC1; peptide conc. 5.08E-10 M, listed as des1.1.1_t1
  HDAC1 activity raw data (signal): 712167
HDAC1; peptide conc. 5.08E-10 M, listed as des1.1.1_t2
  HDAC1 activity raw data (signal): 1083035
HDAC3; Conc. 1.00E-05 M, t1
  HDAC3 activity raw data (signal): 45806
HDAC3; Conc. 1.00E-05 M, t2
  HDAC3 activity raw data (signal): 14609
HDAC3; Conc. 1.11E-06 M, t1
  HDAC3 activity raw data (signal): 200334
HDAC3; Conc. 1.11E-06 M, t2
  HDAC3 activity raw data (signal): 152988
HDAC3; Conc. 1.23E-07 M, t1
  HDAC3 activity raw data (signal): 623414
HDAC3; Conc. 1.23E-07 M, t2
  HDAC3 activity raw data (signal): 515219
HDAC3; Conc. 1.37E-08 M, t1
  HDAC3 activity raw data (signal): 834270
HDAC3; Conc. 1.37E-08 M, t2
  HDAC3 activity raw data (signal): 1063632
HDAC3; Conc. 1.52E-09 M, t1
  HDAC3 activity raw data (signal): 943875
HDAC3; Conc. 1.52E-09 M, t2
  HDAC3 activity raw data (signal): 1416606
HDAC3; Conc. 3.33E-06 M, t1
  HDAC3 activity raw data (signal): 128090
HDAC3; Conc. 3.33E-06 M, t2
  HDAC3 activity raw data (signal): 52786
HDAC3; Conc. 3.70E-07 M, t1
  HDAC3 activity raw data (signal): 393148
HDAC3; Conc. 3.70E-07 M, t2
  HDAC3 activity raw data (signal): 276336
HDAC3; Conc. 4.12E-08 M, t1
  HDAC3 activity raw data (signal): 758574
HDAC3; Conc. 4.12E-08 M, t2
  HDAC3 activity raw data (signal): 884895
HDAC3; Conc. 4.57E-09 M, t1
  HDAC3 activity raw data (signal): 936051
HDAC3; Conc. 4.57E-09 M, t2
  HDAC3 activity raw data (signal): 1217433
HDAC3; Conc. 5.08E-10 M, t1
  HDAC3 activity raw data (signal): 935427
HDAC3; Conc. 5.08E-10 M, t2
  HDAC3 activity raw data (signal): 1315263
